This is an account of results in patent US20210290629A1 (priority 2016, published 2021).

One data set addresses M. tuberculosis AccD5 (Mycobacterium tuberculosis, UniProt P9WQH7). To be noted: literature, Lin T-W. et al., PNAS 2006; cited from earlier work.
Data set [1] relates to GFP-expressing Mycobacterium tuberculosis H37Rv. The class given is cell-based.
The next data set has as its system M, tuberculosis. To be noted: literature, Singhal A. et al., Science Translational Medicine 2014; cited from earlier work.
The subject of data set [2] is human monocyte-derived macrophages (hMDM). Kind of data set: Cell viability analysis by impedance measurements (xCELLigence). The class given is cell-based. The following applies: FIG. 5 and 6, range of tested concentrations (30, 100 and 300 nM), 120 h. On the procedure: 3) Cell Viability Analysis by Impedance Measurements
Real-time viability assays (5×10^4 human monocyte derived macrophages/well) were performed with the xCELLigence System (Acea Biosciences Inc.) (Otero-Gonzalez L et al., Environ Sci Technol. 2012; 46(18):10271-8). Impedance measurement was carried out using plates with incorporated sensor array (E-Plate) and the Real-Time Cell Analyzer (RTCA) SP instrument for 120 h. After equilibration of the cells in RPMI 1640 with 10% FCS and 4 mM L-glutamine for 3 h, cells incubated in the absence (medium) or the presence of the ACC2 inhibitor (30, 100 and 300 nM) and staurosporine (1 μg/ml). Data obtained was analyzed using the RTCA Software 2.0 (Acea Biosciences Inc.) see FIGS. 5 and 6.

The test system of data set [3] is Mycobacterium tuberculosis (Mtb H37Rv) in human monocyte-derived macrophages (hMDM). The class given is cell-based. To be noted: seven days; for intracellular growth of Mycobacterium tuberculosis in primary human macrophages (CFU): 300 nM.
Where [4] appears, read: FIG. 8 and 9, indicated concentrations, day 7.

The structures appear in SMILES notation. Where two headings read alike, the source gives them in different places.

M. tuberculosis AccD5, sequence (P9WQH7 whole entry): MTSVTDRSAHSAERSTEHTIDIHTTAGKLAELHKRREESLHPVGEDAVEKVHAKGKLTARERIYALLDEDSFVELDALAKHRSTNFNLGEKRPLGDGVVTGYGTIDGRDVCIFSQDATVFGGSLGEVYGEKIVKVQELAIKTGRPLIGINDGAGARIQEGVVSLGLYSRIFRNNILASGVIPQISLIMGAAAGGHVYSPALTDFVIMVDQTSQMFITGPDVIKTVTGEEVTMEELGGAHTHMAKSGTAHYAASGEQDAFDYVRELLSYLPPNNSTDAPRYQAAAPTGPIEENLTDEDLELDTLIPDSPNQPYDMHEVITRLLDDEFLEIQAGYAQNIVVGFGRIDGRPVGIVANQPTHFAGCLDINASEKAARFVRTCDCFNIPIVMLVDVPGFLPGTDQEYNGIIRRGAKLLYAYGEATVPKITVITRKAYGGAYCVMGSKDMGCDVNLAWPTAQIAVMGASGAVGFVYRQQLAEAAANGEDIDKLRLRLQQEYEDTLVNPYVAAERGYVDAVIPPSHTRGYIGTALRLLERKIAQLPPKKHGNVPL
M. tuberculosis AccD5, sequence (P9WPQ3 whole entry, further chain): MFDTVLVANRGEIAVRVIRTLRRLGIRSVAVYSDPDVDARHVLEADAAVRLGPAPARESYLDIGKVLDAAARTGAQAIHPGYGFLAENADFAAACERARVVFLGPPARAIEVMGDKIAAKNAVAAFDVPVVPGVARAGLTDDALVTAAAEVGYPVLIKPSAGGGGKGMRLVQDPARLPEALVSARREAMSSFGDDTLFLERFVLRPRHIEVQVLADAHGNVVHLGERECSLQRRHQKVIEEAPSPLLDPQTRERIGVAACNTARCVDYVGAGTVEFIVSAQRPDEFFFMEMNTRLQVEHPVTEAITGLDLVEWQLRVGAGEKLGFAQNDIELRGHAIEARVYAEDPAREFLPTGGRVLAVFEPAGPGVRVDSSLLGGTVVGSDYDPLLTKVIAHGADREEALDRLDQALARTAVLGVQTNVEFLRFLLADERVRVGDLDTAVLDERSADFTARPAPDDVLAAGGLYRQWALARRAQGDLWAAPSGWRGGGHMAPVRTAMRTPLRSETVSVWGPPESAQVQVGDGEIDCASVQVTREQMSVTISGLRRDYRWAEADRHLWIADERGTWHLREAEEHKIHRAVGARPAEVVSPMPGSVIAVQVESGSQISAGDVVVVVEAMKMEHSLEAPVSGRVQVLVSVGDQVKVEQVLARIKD

On to `CC(Oc1ccc(Oc2ccc(Cl)cc2Cl)cc1)C(=O)O` (stereo not drawn) [Diclofop], for which the “inhibition of M. tuberculosis AccD5” value at M. tuberculosis AccD5 is “cannot be inhibited”.

For the compound `COc1ccccc1[C@H](Cn1c(=O)n(C(C)(C)C(N)=O)c(=O)c2c(C)c(-c3ncco3)sc21)OC1CCOCC1` [ND-646], the “growth of Mycobacterium tuberculosis (Mtb) in liquid culture (fluorescence signal intensity at 528 nm)” value in data set [1] (setting [4]) was “do not affect growth”.

In the case of `CC(Oc1ccc(Oc2ncc(C(F)(F)F)cc2Cl)cc1)C(=O)O` (stereo not drawn) [Haloxyfop], on M. tuberculosis AccD5, the “inhibition of M. tuberculosis AccD5” value is recorded as “cannot be inhibited”.

Regarding `CN(C)C(=N)N=C(N)N` [Metformin], the “intracellular growth of M. tuberculosis” value with M, tuberculosis is “reducing the intracellular growth”.

For the compound `CC(=O)NC(C)c1cnc(-c2cnc(Oc3ccc(OC(C)C)cc3)s2)s1` (stereo not drawn) [ab142090, N-(1-(2′-(4-isopropoxyphenoxy)-2,5′-bithiazol5-yl)ethyl)Acetamide], the “growth of Mycobacterium tuberculosis (Mtb) in liquid culture (fluorescence signal intensity at 528 nm)” value in data set [1] (FIG. 1, indicated concentrations and time points, two independent experiments) was “does not affect the growth”. For the same compound, the “viability of primary human macrophages (cell index, impedance)” value in data set [2] was “does not affect the viability”. The “intracellular growth of Mycobacterium tuberculosis in primary human macrophages (CFU)” value in data set [3] (FIG. 2, 100 nM, three donors) is given as “dose-dependently reduces intracellular growth”. The “intracellular growth of Mycobacterium tuberculosis in primary human macrophages (CFU), combination with antibiotics” value in data set [3] (FIG. 3, 100 nM or 300 nM in combination with rifampicin or isoniazid in suboptimal concentrations, three donors) is recorded as “reduces intracellular growth”.

As for `O=C(c1c2ccccc2cc2ccccc12)N1CCC(N2CCC[C@@H](C(=O)N3CCOCC3)C2)CC1` [CP640.186], the “growth of Mycobacterium tuberculosis (Mtb) in liquid culture (fluorescence signal intensity at 528 nm)” value in data set [1] (setting [4]) is recorded as “does not affect growth”. Besides, the “viability of primary human macrophages (cell index, impedance)” value in data set [2] is reported as “does not affect the viability”. Moreover, in data set [3] (FIG. 4, 500 nM, one out of two experiments), the “intracellular growth of Mycobacterium tuberculosis in primary human macrophages (CFU)” value is “dose-dependently reduces intracellular growth”.

On to `COc1cc(C(=O)N2CCC3(CC2)CC(=O)c2cc(-c4cncc(C(=O)O)c4)ccc2O3)cc2c1c(C)cn2C1CC1` [MK-4074], for which the “growth of Mycobacterium tuberculosis (Mtb) in liquid culture (fluorescence signal intensity at 528 nm)” value in data set [1] (setting [4]) is reported as “do not affect growth”.
